One experiment has as its target T1, murine CCR2 (Mus musculus, UniProt P51683).
T1 construct: host or cells: U2OS β-arrestin cell line
As to the kind of experiment: Functional β-arrestin recruiting test with murine MCP-1 (B-2b). Type of experiment: cell-based. The note with it: U2OS β-arrestin cell line transfected with murine CCR2; agonist murine MCP-1; in some cases means of several determinations. The method, then:
The antagonistic action of test substances on CCR2 was determined in a β-arrestin test. The PathHunter β-arrestin GPCR test system (DiscoveRx Corporation, Ltd.) is a cell-based functional method for detecting binding of β-arrestin to an activated receptor. The molecular basis is a […] complementation measured by the enzymatic conversion of a chemiluminescent substrate. The test cell used was a U2OS β-arrestin cell line transfected with murine CCR2 (93-0543C3, DiscoveRx Corporation, Ltd.).
(§1) The test substances were dissolved in dimethyl sulphoxide (DMSO) at a concentration of 10 mM and serially diluted with DMSO in steps of 1:3.16 for a 10-point dose/activity analysis. According to the desired test concentrations, the substances were pre-diluted in Tyrode with 2 mM CaCl2 and 0.05% BSA.
The cells, cultivated in MEM Eagle (supplemented with 10% FCS, 50 U/ml of penicillin, 50 μg/ml of streptomycin, 250 μg/ml of hygromycin and 500 μg/ml of geniticin), were sown at 2000 cells/25 μl in 384 well, μCLEAR/black cell culture plates from Greiner (#781092) and incubated at 37° C. for 24 h. The sowing medium consisted of Opti-MEM (supplemented with 1% FCS, 50 U/ml of penicillin and 50 μg/ml of streptomycin). The cells were pre-incubated for 10 min with 10 μl of the test substances diluted in buffer, and 10 μl of agonist solution [human MCP-1 (PeproTech, #300-04) in Tyrode with 0.05% BSA) were then added. The human MCP-1 was employed at the concentration which corresponds to the EC50 which had been determined in a preliminary test (usually about 3 nM). After 90 min of incubation at 37° C., the solution was removed, and recruitment of β-arrestin to CCR2 was detected with the aid of the PathHunter detection reagent (93-001, DiscoveRx Corporation, Ltd.) according to the instructions of the manufacturer. Luminescence was measured after an incubation time of 60 min using a proprietary luminescence imaging measuring instrument. The molar concentration of the test substance which caused 50% inhibition of the MCP-1 effect (IC50) was determined using a 4-parameter logistic function (Hill function).
The test was carried out in a manner identical to that described above under B-2a, but using murine MCP-1 (PeproTech, #250-10) as agonist.
(In general: Arrestin recruitment assays detect the binding of arrestin to an activated receptor.)

A further experiment deals with T2, human CCR2 (Homo sapiens, UniProt P41597).
T2 construct: host or cells: Chem-1 cell line
T2 sequence (P41597 1-360 isoform P41597-2): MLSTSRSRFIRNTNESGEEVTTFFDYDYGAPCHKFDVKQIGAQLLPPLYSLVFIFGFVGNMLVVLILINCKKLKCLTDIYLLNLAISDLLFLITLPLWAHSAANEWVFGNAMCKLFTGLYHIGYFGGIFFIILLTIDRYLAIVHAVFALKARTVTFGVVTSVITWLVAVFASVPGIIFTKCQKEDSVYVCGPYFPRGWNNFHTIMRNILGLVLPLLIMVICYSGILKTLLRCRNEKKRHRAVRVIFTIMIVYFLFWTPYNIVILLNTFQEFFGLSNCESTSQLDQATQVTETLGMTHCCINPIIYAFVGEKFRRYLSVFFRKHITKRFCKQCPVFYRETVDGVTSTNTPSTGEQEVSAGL
The experiment in a line: Functional Ca2+ release test (B-1). The note with it: Chem-1 cell line transfected with human CCR2; 50% inhibition of the MCP-1 effect, MCP-1 at EC50 (about 5 nM); in some cases means of several determinations. Format: cell-based. How it is done:
The antagonistic action of test substances on CCR2 was determined in a functional Ca^2+ release test. Binding of CCL2/MCP-1 to CCR2 leads to a change in the conformation of the receptor resulting in Gi/Gq protein activation and intracellular signal cascade. This involves, inter alia, an intracellular Ca^2+ release. The test cell used was a Chem-1 cell line transfected with human CCR2 (ChemiSCREEN™ CCR2B Calcium-Optimized FLIPR Cell Line, Merck Millipore).
as §1
The cells, cultivated in DMEM high glucose [supplemented with 10% FCS, 1 mM pyruvate, 15 mM HEPES, 500 μg/ml geniticin and non-essential amino acids (NEAA)], were sown at 5000 cells/25 μl in 384 well, μCLEAR/black cell culture plates from Greiner (#781092) and incubated at 37° C. for 24 h. The sowing medium consisted of DMEM high glucose [supplemented with 5% FCS, 1 mM pyruvate, 15 mM HEPES, 50 U/ml penicillin, 50 μg/ml streptomycin and non-essential amino acids (NEAA)]. The medium was then removed and the cells were charged for 60 min at 37° C. with Fluo-4 dye [25 μl Tyrode with 3 μM Fluo-4 AM (1 mM DMSO stock solution), 0.4 mg/ml Brilliant Black, 2.5 mM probenicid, 0.03% Pluronic F-127]. The cells were pre-incubated for 10 min with 10 μl of the test substances diluted in buffer, and 20 μl of agonist solution (MCP-1 in Tyrode with 0.05% BSA) were then added. MCP-1 was employed at the concentration which corresponds to the EC50 which had been determined in a preliminary test (usually about 5 nM). Ca^2+ release was monitored over a period of 120 s in 1 s increments in a proprietary fluorescence imaging reader. The molar concentration of the test substance which caused 50% inhibition of the MCP-1 effect (IC50) was determined using a 4-parameter logistic function (Hill function).

The values that follow come from patent US20160237059A1, “HETEROCYCLIC SUBSTITUTED TRIFLUOROMETHYL PYRIMIDINONES AND THEIR USE” (BAYER PHARMA AKTIENGESELLSCHAFT, priority 2013, published 2016).

Each structure is given as a SMILES string.

T1 sequence (P51683 whole entry): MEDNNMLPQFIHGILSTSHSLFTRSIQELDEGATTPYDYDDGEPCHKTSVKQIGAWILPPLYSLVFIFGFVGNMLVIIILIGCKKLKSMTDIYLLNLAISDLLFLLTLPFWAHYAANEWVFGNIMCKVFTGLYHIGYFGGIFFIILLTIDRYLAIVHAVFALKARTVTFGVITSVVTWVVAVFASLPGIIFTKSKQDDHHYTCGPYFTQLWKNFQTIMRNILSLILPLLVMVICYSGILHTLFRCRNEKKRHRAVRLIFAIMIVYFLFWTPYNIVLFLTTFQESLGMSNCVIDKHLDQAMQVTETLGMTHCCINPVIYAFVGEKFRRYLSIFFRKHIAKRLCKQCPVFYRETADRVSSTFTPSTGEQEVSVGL

Consider `CN(C)c1cccc(-c2nc(C(F)(F)F)c(Oc3ccc(Cl)c(C(F)(F)F)c3)c(=O)[nH]2)n1` [Example 135, 5-[4-chloro-3-(trifluoromethyl)phenoxy]-2-[6-(dimethylamino)pyridin-2-yl]-6-(trifluoromethyl)pyrimidin-4(3H)-one], for which the results for the IC50 on murine CCR2 and against human CCR2 were 1570 nM and 14 nM, respectively.
With `Cn1nc(-c2nc(C(F)(F)F)c(Oc3ccc(Cl)c(Cl)c3)c(=O)[nH]2)c2ccccc21` [Example 136, 5-(3,4-dichlorophenoxy)-2-(1-methyl-1H-indazol-3-yl)-6-(trifluoromethyl)pyrimidin-4(3H)-one], the IC50 – broadly, the point on the concentration scale where inhibition reaches its midpoint – on murine CCR2 was determined as 1220 nM; on human CCR2 it was 39 nM.
On to `Cn1nc(-c2nc(C(F)(F)F)c(Oc3ccc(Cl)c(C(F)(F)F)c3)c(=O)[nH]2)c2ccccc21` [Example 137, 5-[4-chloro-3-(trifluoromethyl)phenoxy]-2-(1-methyl-1H-indazol-3-yl)-6-(trifluoromethyl)pyrimidin-4(3H)-one], for which the results for the concentration for half-maximal inhibition (IC50) at murine CCR2 and against human CCR2 were 334 nM and 16 nM, respectively.
For `COc1cccnc1-c1nc(C(F)(F)F)c(Oc2ccc(Cl)c(OC(F)(F)F)c2)c(=O)[nH]1` [Example 138], in that order: 412 nM and 1.4 nM.
Take `O=c1[nH]c(-c2n[nH]c3ccccc23)nc(C(F)(F)F)c1Oc1ccc(Cl)c(Cl)c1` [Example 139, 5-(3,4-Dichlorophenoxy)-2-(1H-indazol-3-yl)-6-(trifluoromethyl)pyrimidin-4(3H)-one]: the 50% inhibitory concentration (IC50) was found to be 229 nM on murine CCR2 and 0.7 nM against human CCR2.
In the case of `O=c1[nH]c(-c2n[nH]c3ccccc23)nc(C(F)(F)F)c1Oc1ccc(Cl)c(C(F)(F)F)c1` [Example 140, 5-[4-chloro-3-(trifluoromethyl)phenoxy]-2-(1H-indazol-3-yl)-6-(trifluoromethyl)pyrimidin-4(3H)-one], the IC50 at murine CCR2 came to 75 nM; on human CCR2, 0.8 nM.
For `Cn1nc(-c2nc(C(F)(F)F)c(Oc3ccc(Cl)c(Cl)c3)c(=O)[nH]2)c2c(Cl)cccc21` [Example 141, 2-(4-chloro-1-methyl-1H-indazol-3-yl)-5-(3,4-dichlorophenoxy)-6-(trifluoromethyl)pyrimidin-4(3H)-one], the IC50 on murine CCR2 stood at 274 nM; on human CCR2 it was 5.1 nM.
In the case of `Cn1nc(-c2nc(C(F)(F)F)c(Oc3ccc(Cl)c(C(F)(F)F)c3)c(=O)[nH]2)c2c(Cl)cccc21` [Example 142, 2-(4-chloro-1-methyl-1H-indazol-3-yl)-5-[4-chloro-3-(trifluoromethyl)phenoxy]-6-(trifluoromethyl)pyrimidin-4(3H)-one], the IC50 at murine CCR2 was 246 nM; against human CCR2 it was 3.3 nM.
On to `COc1cncnc1-c1nc(C(F)(F)F)c(Oc2ccc(Cl)c(Cl)c2)c(=O)[nH]1` [Example 143, 5-(3,4-dichlorophenoxy)-5′-methoxy-6-(trifluoromethyl)-2,4′-bipyrimidin-4(3H)-one], for which the IC50 on murine CCR2 is 86 nM; on human CCR2 it was 1.1 nM.
On to `COc1cccc(-c2nc(C(F)(F)F)c(Oc3ccc(Cl)c(Cl)c3)c(=O)[nH]2)n1` [Example 144, 5-(3,4-dichlorophenoxy)-2-(6-methoxypyridin-2-yl)-6-(trifluoromethyl)pyrimidin-4(3H)-one], for which the IC50 on murine CCR2 was determined as 759 nM; against human CCR2, 17 nM.
In the case of `CC(C)Oc1ccnc(-c2nc(C(F)(F)F)c(Oc3ccc(Cl)c(Cl)c3)c(=O)[nH]2)c1` [Example 145, 5-(3,4-dichlorophenoxy)-2-(4-isopropoxypyridin-2-yl)-6-(trifluoromethyl)pyrimidin-4(3H)-one], the IC50 at murine CCR2 is 2810 nM; at human CCR2, 322 nM.
Consider `CC(C)(C)Oc1cccc(-c2nc(C(F)(F)F)c(Oc3ccc(Cl)c(Cl)c3)c(=O)[nH]2)n1` [Example 146, 2-(6-tent-butoxypyridin-2-yl)-5-(3,4-dichlorophenoxy)-6-(trifluoromethyl)pyrimidin-4(3H)-one], for which the IC50 was determined as 3500 nM on murine CCR2 and 404 nM on human CCR2.
The like results for `COc1ccnc(-c2nc(C(F)(F)F)c(Oc3ccc(Cl)c(Cl)c3)c(=O)[nH]2)c1` [Example 147, 5-(3,4-dichlorophenoxy)-2-(4-methoxypyridin-2-yl)-6-(trifluoromethyl)pyrimidin-4(3H)-one] were, in that order, 373 nM and 121 nM.
`COc1ccc(-c2nc(C(F)(F)F)c(Oc3ccc(Cl)c(Cl)c3)c(=O)[nH]2)nc1` [Example 148, 5-(3,4-dichlorophenoxy)-2-(5-methoxypyridin-2-yl)-6-(trifluoromethyl)pyrimidin-4(3H)-one]: the 50% inhibitory concentration (IC50) stood at 454 nM at murine CCR2 and 42 nM against human CCR2.
Regarding `COc1cccc(-c2nc(C(F)(F)F)c(Oc3ccc(Cl)c(C(F)(F)F)c3)c(=O)[nH]2)n1` [Example 149, 5-[4-chloro-3-(trifluoromethyl)phenoxy]-2-(6-methoxypyridin-2-yl)-6-(trifluoromethyl)pyrimidin-4(3H)-one], the figures for the 50% inhibitory concentration (IC50) on murine CCR2 and against human CCR2 were 526 nM and 0.7 nM, respectively.
The like results for `CC(C)Oc1ccnc(-c2nc(C(F)(F)F)c(Oc3ccc(Cl)c(C(F)(F)F)c3)c(=O)[nH]2)c1` [Example 150, 5-[4-chloro-3-(trifluoromethyl)phenoxy]-2-(4-isopropoxypyridin-2-yl)-6-(trifluoromethyl)pyrimidin-4(3H)-one] were, in that order, 1340 nM and 23 nM.
For `CC(C)(C)Oc1cccc(-c2nc(C(F)(F)F)c(Oc3ccc(Cl)c(C(F)(F)F)c3)c(=O)[nH]2)n1` [Example 151, 2-(6-tert-butoxypyridin-2-yl)-5-[4-chloro-3-(trifluoromethyl)phenoxy]-6-(trifluoromethyl)pyrimidin-4(3H)-one], in that order: 3680 nM and 96 nM.
As for `COc1ccnc(-c2nc(C(F)(F)F)c(Oc3ccc(Cl)c(C(F)(F)F)c3)c(=O)[nH]2)c1` [Example 152, 5-[4-chloro-3-(trifluoromethyl)phenoxy]-2-(4-methoxypyridin-2-yl)-6-(trifluoromethyl)pyrimidin-4(3H)-one], the results for the IC50 at murine CCR2 and at human CCR2 were 838 nM and 8.2 nM, respectively.
For `Nc1ccc(-c2nc(C(F)(F)F)c(Oc3ccc(Cl)c(C(F)(F)F)c3)c(=O)[nH]2)nn1` [Example 153, 2-(6-aminopyridazin-3-yl)-5-[4-chloro-3-(trifluoromethyl)phenoxy]-6-(trifluoromethyl)pyrimidin-4(3H)-one], in that order: 87 nM and 0.7 nM.
